Assay: gradient 5% acetonitrile 3 min, to 50% in 2 min, to 85% in 15 min, held 3 min, 100 µL/min
Conditions: column: Zorbax Extend-C18 2.1 x 50 mm; eluents: water / acetonitrile, 0.1% formic acid
How it was run: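 Using water and acetonitrile that each contained 0.1% formic acid, mixtures of ~100 pure standards were separated at 100 μL/min on a Zorbax Extend-C18 column (2.1 × 50 mm, 1.8 μm). The HPLC fed a quadrupole time-of-flight mass spectrometer working in positive and negative ionization mode, with dead and dwell volumes of 40 μL and 900 μL. Data were acquired over 3 months. Retention time was read from computationally picked adduct peaks after manual inspection of each.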

Compound: CN(C)CCNC(=O)c1ccc2c(c1)nnn2Cc1ccccc1
- RP-LC retention time: 567 s

Compound: Cc1nc2cc3c(cc2n1CC(=O)NCCOc1ccc(Cl)cc1)OCCO3
- RP-LC retention time: 674 s

Compound: Cc1csc(-c2cc(S(=O)(=O)N3CCN(C4CCCCC4)CC3)c(C)s2)n1
- RP-LC retention time: 714 s

Compound: O=C(Nc1cccc(Cl)c1)N1CCN(CCn2c(-c3ccncc3)nc3cccnc32)CC1
- RP-LC retention time: 623 s

Compound: COc1cc(NC(=O)NCCc2c(C)nn(C)c2C)cc(OC)c1OC
- RP-LC retention time: 610 s

Compound: Cc1ccc2cccc(Oc3ncnc(N)c3[N+](=O)[O-])c2n1
- RP-LC retention time: 623 s

Compound: CN1CCN(c2ccc([N+](=O)[O-])c3no[n+]([O-])c23)CC1
- RP-LC retention time: 631 s

Compound: COC(=O)C1=C(C)N(C2CCCC2)C(=O)C1(NC(=O)CCc1ccccc1)C(F)(F)F (configuration not stated)
- RP-LC retention time: 1080 s

Compound: CSc1ccccc1NC(=O)c1cn2c(n1)CCCC2
- RP-LC retention time: 638 s

Compound: O=C(CCc1ccc2cc[nH]c2c1)NCc1cc(F)cc(F)c1
- RP-LC retention time: 848 s

Compound: CCCn1cc(CCNC(=O)c2cc3ccccc3[nH]2)c2cccnc21
- RP-LC retention time: 794 s

Compound: COCCN1C(=O)c2cccn2CC1CNC(=O)Cn1nc(C(F)(F)F)cc1C (configuration not stated)
- RP-LC retention time: 703 s

Compound: Cc1ccc(S(=O)(=O)Cc2noc(CCNS(=O)(=O)c3ccc(C)cc3)n2)cc1
- RP-LC retention time: 875 s

Compound: COc1ccc(NC(=O)NCCn2c(C(F)(F)F)nc3cccnc32)cc1
- RP-LC retention time: 701 s

Compound: O=C(Nc1cnc(N2CCCCC2)nc1)c1cc(F)cc(F)c1
- RP-LC retention time: 984 s

Compound: O=C(c1cn2cc(Cl)ccc2n1)N1CCN(c2ccccc2)CC1
- RP-LC retention time: 804 s

Compound: COCc1c(C(=O)O)nnn1-c1ccc(OC)cc1
- RP-LC retention time: 677 s

Compound: Cn1c(=O)sc2cc(S(=O)(=O)N3CCC(C(=O)NCc4cccs4)CC3)ccc21
- RP-LC retention time: 788 s

Compound: Cc1cc(N2CCN(C(=O)c3ccc(Cl)cc3)CC2)nc(N2CCOCC2)n1
- RP-LC retention time: 639 s

Compound: CCNC(=O)c1[nH]c2ccc(C)cc2c1N1CCCC1=O
- RP-LC retention time: 690 s

Compound: Cc1ccc(S(=O)(=O)N2C[C@@H](F)C[C@H]2C(=O)N2CCc3ccccc3C2)cc1Cl
- RP-LC retention time: 1020 s

Compound: CCC(C)(C)C(=O)NC1CCN(C2=NS(=O)(=O)C(c3ccc(C)c(C)c3)=C2C)CC1
- RP-LC retention time: 950 s

Compound: O=C(CCCn1c(=O)c2cccn2c2ccc(F)cc21)N1CCCCCC1
- RP-LC retention time: 934 s

Compound: CN(C)c1cccc(-c2nc(-c3ccc4c(c3)nnn4CCN3CCOCC3)no2)c1
- RP-LC retention time: 706 s

Compound: Cc1ccc(O)c(CNC2CCN(c3ccc(C(=O)NC4CC4)cn3)C2)c1 (configuration not stated)
- RP-LC retention time: 560 s

Compound: COc1cccc(OC)c1C(=O)Nc1nc(-c2ccc3c(c2)NC(=O)C(C)O3)c(C)s1 (configuration not stated)
- RP-LC retention time: 866 s

Compound: CCc1ccc(NC(=O)C2CCN(S(C)(=O)=O)c3cc(C)ccc3O2)cc1 (configuration not stated)
- RP-LC retention time: 998 s

Compound: CCOC(=O)c1ccc(NS(=O)(=O)c2cc3n(c2)CCN(C(C)C)C3=O)cc1
- RP-LC retention time: 777 s

Compound: CCc1cccc(NC(=O)Cn2c(=O)n(-c3cccc(C)c3)c(=O)c3c2cc(C)n3C)c1
- RP-LC retention time: 966 s

Compound: O=C(NC1CCCN(c2cc(N3CCCC3)ncn2)C1)c1ccccn1 (configuration not stated)
- RP-LC retention time: 606 s

Compound: Cc1ccc(-c2nnc(Cc3nc(-c4ccc(OC(C)C)cc4)no3)o2)cc1C
- RP-LC retention time: 1240 s

Compound: CS(=O)(=O)N1CCC(C(=O)N2CCC3(CC2)OCCS3)CC1
- RP-LC retention time: 625 s

Compound: Cc1nc([C@@H]2CN(C(=O)CCc3c(C)noc3C)C[C@H]2C(N)=O)n[nH]1
- RP-LC retention time: 569 s

Compound: O=C(Nc1ccccc1F)N1CCC(n2cnc3ccccc3c2=O)CC1
- RP-LC retention time: 712 s

Compound: O=C(c1ccc2c(c1)OCO2)N1CCC(n2nc(-c3ccsc3)ccc2=O)CC1
- RP-LC retention time: 764 s

Compound: CCOC(=O)c1sc(NC(=O)CSc2nccn2C)nc1-c1ccccc1
- RP-LC retention time: 678 s

Compound: O=C(Nc1cccnc1)C1CCCN(S(=O)(=O)c2c[nH]c(C(=O)N3CCCC3)c2)C1 (configuration not stated)
- RP-LC retention time: 594 s

Compound: CC1=C(CO)C(=O)O[C@@H]([C@@H](C)[C@H]2CCC3[C@@H]4C[C@H]5O[C@]56[C@@H](O)C=CC(=O)[C@]6(C)C4CC[C@@]32C)C1 (some centres not stated)
- RP-LC retention time: 759 s

Compound: CCN1C(=O)c2cccnc2Sc2cc(CNC(=O)c3ccco3)ccc21
- RP-LC retention time: 701 s

Compound: Cc1nnsc1C(=O)Nc1nnc(Cc2ccc3c(c2)OCO3)o1
- RP-LC retention time: 740 s

Compound: CCOC(=O)C1CCCN(Cc2nc3nc(C)cc(N4CCCC4)n3n2)C1 (configuration not stated)
- RP-LC retention time: 579 s

Compound: COc1ccc(-n2ccc(=O)c(-c3nc(-c4ccc(Cl)c(F)c4)no3)n2)cc1
- RP-LC retention time: 993 s

Compound: c1ccc(-c2noc(NCCc3ccsc3)n2)cc1
- RP-LC retention time: 969 s

Compound: COCc1noc(C2CN(C(=O)CC(F)(F)F)CC23CCCC3)n1 (configuration not stated)
- RP-LC retention time: 798 s

Compound: N#CCSc1nnc2n(CCC(=O)NC3CCCCC3)c(=O)c3ccccc3n12
- RP-LC retention time: 687 s

Compound: COc1ccc(C(=O)Nc2nnc(SCc3nnc(-c4ccccc4C)o3)s2)cc1OC
- RP-LC retention time: 898 s

Compound: COc1cccc(C(=O)N2CCN(c3ccc(=O)n(-c4ccc(Cl)cc4)n3)CC2)c1
- RP-LC retention time: 853 s

Compound: COc1ccc(C)cc1NC(=O)Cn1nc2c(Oc3cc(C)cc(C)c3)nccn2c1=O
- RP-LC retention time: 1050 s

Compound: O=C(CCCn1nnc2ccccc2c1=O)Nc1ccc(F)c(Cl)c1
- RP-LC retention time: 794 s

Compound: O=C(NC1CCCC1)c1cccnc1N1CCOCC1
- RP-LC retention time: 637 s

Compound: Cc1noc(-c2nc(-c3ccncc3)no2)n1
- RP-LC retention time: 703 s

Compound: CCc1ccccc1NC(=O)Cn1c(=O)cc(-c2nc(C3CC3)no2)c2ccccc21
- RP-LC retention time: 990 s

Compound: O=C(NCc1cccs1)C1CCN(S(=O)(=O)c2cc(C(=O)N3CCCCCC3)cs2)CC1
- RP-LC retention time: 861 s

Compound: CCc1ccc(Oc2cc(N3CCC(C(=O)NCCCc4ccccc4)CC3)ncn2)cc1
- RP-LC retention time: 1080 s

Compound: Cc1ccc2nc(C(=O)N3CCN(c4ccc(F)cc4)CC3)cn2c1
- RP-LC retention time: 650 s

Compound: CCN1C(=O)CCc2cc(NC(=O)Cc3ccc(F)cc3)ccc21
- RP-LC retention time: 780 s

Compound: Cc1noc(-c2csc(C(=O)N3CCCC3)n2)n1
- RP-LC retention time: 688 s

Compound: CC(C)CNC(=O)CCc1nc2ccccc2n(CC(=O)NCc2ccccc2)c1=O
- RP-LC retention time: 769 s

Compound: O=C(c1ccccn1)N1CCCCC1c1nc(-c2cnccn2)no1 (configuration not stated)
- RP-LC retention time: 637 s

Compound: Cc1occc1C(=O)N[C@@H]1CN(c2ncccn2)C[C@H]1CO
- RP-LC retention time: 597 s

Compound: COc1ccccc1-c1noc(Cn2cnc3c(cnn3-c3ccc(Br)cc3)c2=O)n1
- RP-LC retention time: 1060 s

Compound: COc1ccc(NC(=O)C2CCCN(c3nccnc3Sc3ccccc3)C2)cc1 (configuration not stated)
- RP-LC retention time: 1030 s

Compound: Cc1ccc(CNc2nc3ccncc3n(C(C)C)c2=O)cc1
- RP-LC retention time: 701 s

Compound: Cc1ccc(CNC(=O)N2CCc3c(c(-c4nc(C5CC5)no4)nn3C)C2)cc1
- RP-LC retention time: 828 s

Compound: CN1C(=O)c2cccn2CC1CNC(=O)Nc1ccccc1 (configuration not stated)
- RP-LC retention time: 647 s

Compound: CN(C)CCNC(=O)C1CCN(C(=O)c2cc3ccsc3n2Cc2ccc(Cl)cc2)CC1
- RP-LC retention time: 685 s

Compound: CC(NC(=O)C1CCCN(C(=O)c2cc3sccc3n2C)C1)c1ccc2c(c1)OCCO2 (configuration not stated)
- RP-LC retention time: 838 s

From the METLIN SMRT retention time set (Domingo-Almenara et al. 2019)
